From US8415469B2, “Compounds and methods for kinase modulation, and indications therefor” (Plexxikon Inc., priority 2005, dated 2013)

What follows are compounds tested against T1, B-Raf V600E (Homo sapiens, UniProt P15056, V600E) (assay: AlphaScreen kinase assay, B-Raf V600E). Settings: read-out: IC50, activity toward kinase B-Raf V600E.
T1 construct: P4254. pFastBacBD-CDC37 BRAF D437-K722-X, V600E; His6 with pFastBac HT leader (TEV site) (N); made in house; host or cells: Sf9 (baculovirus; chaperone CDC37 co-expressed)
Assay type: biochemical

T1 sequence (P15056 with tags, fused parts or gaps V600E): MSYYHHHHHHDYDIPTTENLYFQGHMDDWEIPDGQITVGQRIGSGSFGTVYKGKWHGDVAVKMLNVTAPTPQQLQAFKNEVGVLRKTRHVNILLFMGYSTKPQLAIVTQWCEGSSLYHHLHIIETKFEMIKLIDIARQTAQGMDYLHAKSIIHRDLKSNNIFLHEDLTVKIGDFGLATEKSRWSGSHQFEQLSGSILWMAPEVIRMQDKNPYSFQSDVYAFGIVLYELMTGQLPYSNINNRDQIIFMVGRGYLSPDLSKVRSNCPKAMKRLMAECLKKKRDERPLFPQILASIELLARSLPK

Row | SMILES | IC50
1 | Cc1cc(C)cc(-c2ccnc3[nH]cc(Sc4cccs4)c23)c1 [Compound P-0255] | ≤ 10 µM
2 | CCC(C)Cc1c[nH]c2ncccc12 (stereo not shown) [Compound P-0386] | ≤ 10 µM
3 | OCc1cccc(-c2ccnc3[nH]cc(Sc4ccc(Cl)cc4)c23)c1 [Compound P-0388] | ≤ 10 µM
4 | COC(c1ccc(Br)cc1)c1c[nH]c2ncccc12 (stereo not shown) [Compound P-0552] | ≤ 10 µM
5 | O=C(c1cc([N+](=O)[O-])ccc1Cl)c1c[nH]c2ncccc12 [Compound P-0592] | ≤ 10 µM
6 | OCc1cccc(-c2ccnc3[nH]cc(Sc4cc(Cl)cc(Cl)c4)c23)c1 [Compound P-0600] | ≤ 10 µM
7 | COC(=O)c1cccc(C#Cc2c[nH]c3ncc(-c4ccc(OC)c(OC)c4)cc23)c1 [Compound P-0646] | ≤ 10 µM
8 | FC(F)(F)c1cccc(-c2ccnc3[nH]cc(Sc4cccs4)c23)c1 [Compound P-0651] | ≤ 10 µM
9 | O=[N+]([O-])c1cccc(Sc2c[nH]c3nccc(-c4cc(F)cc(F)c4)c23)c1 [Compound P-0816] | ≤ 10 µM
10 | Cc1nc2ccc(Nc3cnc4[nH]ccc4c3)cc2s1 [Compound P-1030] | ≤ 10 µM
11 | Fc1cccc(Nc2cnc3[nH]ccc3c2)c1 [Compound P-1035] | ≤ 10 µM
12 | CC(C)Oc1cccc(Nc2cnc3[nH]ccc3c2)c1 [Compound P-1049] | ≤ 10 µM
13 | O=C(c1c(F)ccc(N(Cc2ccccc2)Cc2ccccc2)c1F)c1c[nH]c2ncc(-c3cccnc3)cc12 [Compound P-1074] | ≤ 10 µM
14 | COc1ccc(S(=O)(=O)Nc2ccc(F)c(C(=O)c3c[nH]c4ncccc34)c2F)cc1OC [Compound P-1090, N-[2,4-Difluoro-3-(1H-pyrrolo[2,3-b]pyridine-3-carbonyl)-phenyl]-3,4-dimethoxy-benzenesulfonamide] | ≤ 10 µM
15 | Fc1ccc(Nc2cnc3[nH]ccc3c2)cc1 [Compound P-1091] | ≤ 10 µM
16 | CCC(C)c1ccc(Nc2cnc3[nH]ccc3c2)cc1 (stereo not shown) [Compound P-1128] | ≤ 10 µM
17 | COc1ccc(OC)c(S(=O)(=O)Nc2ccc(F)c(C(=O)c3c[nH]c4ncccc34)c2F)c1 [Compound P-1131, N-[2,4-Difluoro-3-(1H-pyrrolo[2,3-b]pyridine-3-carbonyl)-phenyl]-2,5-dimethoxy-benzenesulfonamide] | ≤ 10 µM
18 | CC(C)(C)OC(=O)Nc1ccc(Cl)c(C(O)c2c[nH]c3ncccc23)c1F (stereo not shown) [Compound P-1140] | ≤ 10 µM
19 | Oc1ccc(F)c(C(O)c2c[nH]c3ncc(Br)cc23)c1F (stereo not shown) [Compound P-1180, 3-[(5-Bromo-1H-pyrrolo[2,3-b]pyridin-3-yl)-hydroxy-methyl]-2,4-difluoro-phenol] | ≤ 10 µM
20 | COC(c1ccc(N(Cc2ccc(Cl)cc2)C(=O)OC(C)(C)C)nc1)c1c[nH]c2ncccc12 (stereo not shown) [Compound P-1183] | ≤ 10 µM
21 | CC(C)(C)OC(=O)Nc1ccc(-c2c[nH]c3ncccc23)cc1 [Compound P-1195] | ≤ 10 µM
22 | CCCCN(c1ccc(F)c(Cc2c[nH]c3ncc(-c4cccnc4)cc23)c1F)S(=O)(=O)c1ccc(C(F)(F)F)cc1 [Compound P-1444] | ≤ 10 µM
23 | COc1cnc2[nH]cc(C(O)c3c(F)ccc(NS(=O)(=O)c4ccc(C(F)(F)F)cc4)c3F)c2c1 (stereo not shown) [Compound P-1540] | ≤ 10 µM
24 | CCCS(=O)(=O)Nc1cccc(C(O)c2c[nH]c3ncc(Br)cc23)c1C (stereo not shown) [Compound P-1607] | ≤ 10 µM
25 | CN(C)S(=O)(=O)N(C)c1ccc(F)c(C(=O)c2c[nH]c3ncc(Cl)cc23)c1F [Compound P-1666] | ≤ 10 µM
26 | O=C(c1c(F)ccc(NS(=O)(=O)c2ccc(-c3cnco3)cc2)c1F)c1c[nH]c2ncc(Cl)cc12 [Compound P-1843, N-[3-(5-Chloro-1H-pyrrolo[2,3-b]pyridine-3-carbonyl)-2,4-difluoro-phenyl]-4-oxazol-5-yl-benzenesulfonamide] | ≤ 10 µM

More lines, now with the values ahead:

Row | IC50 | SMILES
27 | ≤ 10 µM | Fc1cc(F)cc(-c2ccnc3[nH]cc(Sc4ccccc4)c23)c1 [Compound P-0311]
28 | ≤ 10 µM | COc1ccccc1-c1c[nH]c2ncccc12 [Compound P-0358]
29 | ≤ 10 µM | c1ccc(Cc2nc(-c3ccnc4[nH]ccc34)no2)cc1 [Compound P-0381]
30 | ≤ 10 µM | c1ccc(CNc2ccc(Cc3c[nH]c4ncccc34)cc2)cc1 [Compound P-0493]
31 | ≤ 10 µM | COc1ccc(Cc2nc(-c3ccnc4[nH]ccc34)no2)cc1 [Compound P-0696]
32 | ≤ 10 µM | Cn1ccc2cc(-c3c[nH]c4ncccc34)ccc21 [Compound P-0713]
33 | ≤ 10 µM | O=C(Nc1ccc(Cc2c[nH]c3ncccc23)cc1)c1ccccc1 [Compound P-0803]
34 | ≤ 10 µM | CC(C)(C)Oc1ccc(Cc2c[nH]c3ncccc23)cn1 [Compound P-0819]
35 | ≤ 10 µM | c1cnc2[nH]cc(-c3noc(CCC4CCCC4)n3)c2c1 [Compound P-0833]
36 | ≤ 10 µM | COc1ccc(-c2c[nH]c3ncccc23)cc1OCc1ccccc1 [Compound P-0886]
37 | ≤ 10 µM | Cc1cc(-c2nc(-c3ccnc4[nH]ccc34)no2)n(C(C)(C)C)n1 [Compound P-0893]
38 | ≤ 10 µM | Cn1nc(C(C)(C)C)cc1-c1nc(-c2c[nH]c3ncccc23)no1 [Compound P-1177]
39 | ≤ 10 µM | FC(F)(F)c1ccc(-c2c[nH]c3ncccc23)cc1 [Compound P-1179]
40 | ≤ 10 µM | CC(C)(C)c1ccc(OCc2nc(-c3ccnc4[nH]ccc34)no2)cc1 [Compound P-1187]
41 | ≤ 10 µM | N#Cc1ccc(CCc2c[nH]c3ncccc23)cc1 [Compound P-1199]

These compounds were tested against T2, FGFR1 (Homo sapiens, UniProt P11362, C488A/C584S) (assay: AlphaScreen kinase assay, FGFR1). Settings: read-out: IC50, activity toward kinase FGFR.
T2 construct: P1351.pET N6 BI-PTP FGFR A458-E765-X C488A, C584S; made in house; host or cells: E. coli (PTP1B co-expressed)
Assay type: biochemical

T2 sequence (P11362 458-765 C488A/C584S): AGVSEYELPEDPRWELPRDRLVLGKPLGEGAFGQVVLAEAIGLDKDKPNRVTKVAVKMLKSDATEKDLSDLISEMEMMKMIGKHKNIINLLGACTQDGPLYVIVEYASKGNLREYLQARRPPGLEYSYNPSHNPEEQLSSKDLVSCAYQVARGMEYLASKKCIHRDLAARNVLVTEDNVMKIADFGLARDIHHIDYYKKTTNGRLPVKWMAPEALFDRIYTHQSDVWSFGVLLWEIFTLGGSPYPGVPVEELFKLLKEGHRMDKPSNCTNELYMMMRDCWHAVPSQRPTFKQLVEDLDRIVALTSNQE

Row | SMILES | IC50
42 | CC(C)Nc1ccc(C(=O)c2c[nH]c3ncccc23)cn1 [Compound P-0227] | ≤ 10 µM
43 | O=C(c1cccc(Cl)c1Cl)c1c[nH]c2ncc(Br)cc12 [Compound P-0294] | ≤ 10 µM
44 | COc1cccc(Cc2c[nH]c3ncc(-c4ccc(C(=O)C(F)(F)F)[nH]4)cc23)c1 [Compound P-0309] | ≤ 10 µM
45 | c1cnc2[nH]cc(Cc3ccc(NCC4CC4)nc3)c2c1 [Compound P-0400] | ≤ 10 µM
46 | Cc1ccc(F)cc1C(=O)c1c[nH]c2ncc(Br)cc12 [Compound P-0424] | ≤ 10 µM
47 | COc1cccc(C(=O)c2c[nH]c3ncc(-c4cc(F)cc(F)c4)cc23)c1 [Compound P-0474] | ≤ 10 µM
48 | O=C(c1c(F)ccc(N(Cc2ccccc2)Cc2ccccc2)c1F)c1c[nH]c2ncc(-c3cccnc3)cc12 [Compound P-1074] | ≤ 10 µM
49 | O=C(c1c(F)ccc([N+](=O)[O-])c1F)c1c[nH]c2ncc(Br)cc12 [Compound P-1182] | ≤ 10 µM
50 | O=C(c1c(F)ccc(Cl)c1F)c1c[nH]c2ncccc12 [Compound P-1272] | ≤ 10 µM
51 | CCCNS(=O)(=O)c1ccc(NCC)c(C(=O)c2c[nH]c3ncccc23)c1F [Compound P-1273] | ≤ 10 µM
52 | Cc1ccc(F)c(C(=O)c2c[nH]c3ncccc23)c1F [Compound P-1274] | ≤ 10 µM
53 | COc1ccc([N+](=O)[O-])cc1C(OC)c1c[nH]c2ncc(Br)cc12 (stereo not shown) [Compound P-1287] | ≤ 10 µM
54 | COc1ccc(Cc2c[nH]c3ncc(Br)cc23)c(F)c1 [Compound P-1322] | ≤ 10 µM
55 | COCCOc1ccc(F)c(C(=O)c2c[nH]c3ncc(Br)cc23)c1F [Compound P-1453, (5-Bromo-1H-pyrrolo[2,3-b]pyridin-3-yl)-[2,6-difluoro-3-(2-methoxy-ethoxy)-phenyl]-methanone] | ≤ 10 µM
56 | COCCOc1ccc(F)c(Cc2c[nH]c3ncc(Br)cc23)c1F [Compound P-1454, 5-Bromo-3-[2,6-difluoro-3-(2-methoxy-ethoxy)-benzyl]-1H-pyrrolo[2,3-b]pyridine] | ≤ 10 µM
57 | OC(c1cccc2c1OC(F)(F)O2)c1c[nH]c2ncc(Br)cc12 (stereo not shown) [Compound P-1512] | ≤ 10 µM
58 | O=C(c1c[nH]c2ncc(Br)cc12)c1cccc2c1ccn2S(=O)(=O)c1ccccc1 [Compound P-1524, (1-Benzenesulfonyl-1H-indol-4-yl)(5-bromo-1H-pyrrolo[2,3-b]pyridin-3-yl)-methanone] | ≤ 10 µM
59 | COCCOc1ccc(F)c(C(=O)c2c[nH]c3ncc(OC)cc23)c1F [Compound P-1584, [2,6-Difluoro-3-(2-methoxy-ethoxy)-phenyl]-(5-methoxy-1H-pyrrolo[2,3-b]pyridin-3-yl)-methanone] | ≤ 10 µM

Now from value to compound:

Row | IC50 | SMILES
60 | ≤ 10 µM | O=C(c1cccc([N+](=O)[O-])c1)c1c[nH]c2ncccc12 [Compound P-0219]
61 | ≤ 10 µM | Cc1ccc(Cc2c[nH]c3ncccc23)cc1C [Compound P-0368]
62 | ≤ 10 µM | Fc1cc(F)cc(Cc2c[nH]c3ncccc23)c1 [Compound P-0374]
63 | ≤ 10 µM | O=C(c1ccc2ccccc2n1)c1c[nH]c2ncccc12 [Compound P-0479]
64 | ≤ 10 µM | c1ccc(CNc2ccc(Cc3c[nH]c4ncccc34)cc2)cc1 [Compound P-0493]
65 | ≤ 10 µM | Cc1cc(Cc2c[nH]c3ncccc23)ccc1F [Compound P-0510]
66 | ≤ 10 µM | c1ccc2cc(Cc3c[nH]c4ncccc34)ccc2c1 [Compound P-0575]
67 | ≤ 10 µM | Brc1ccc(Cc2c[nH]c3ncccc23)cc1 [Compound P-0615]
68 | ≤ 10 µM | CC(C)(C)Oc1ccc(Cc2c[nH]c3ncccc23)cn1 [Compound P-0819]
69 | ≤ 10 µM | CC(C)(C)c1ccc(Cc2c[nH]c3ncccc23)cc1 [Compound P-0828]
70 | ≤ 10 µM | COc1cccc(Cc2c[nH]c3nccc(-c4cccc(OC)c4)c23)c1 [Compound P-0979]
71 | ≤ 10 µM | Fc1ccc(OCc2ccccc2)c(F)c1Cc1c[nH]c2ncc(-c3cccnc3)cc12 [Compound P-1455, 3-(3-Benzyloxy-2,6-difluoro-benzyl)-5-pyridin-3-yl-1H-pyrrolo[2,3-b]pyridine]
72 | ≤ 10 µM | O=C(c1c(F)ccc(OCc2ccccc2)c1F)c1c[nH]c2ncc(-c3cccnc3)cc12 [Compound P-1467, (3-Benzyloxy-2,6-difluoro-phenyl)-(5-pyridin-3-yl-1H-pyrrolo[2,3-b]pyridin-3-yl)-methanone]
73 | ≤ 10 µM | COc1cnc2[nH]cc(C(=O)c3c(F)ccc(OCc4ccccc4)c3F)c2c1 [Compound P-1597, (3-Benzyloxy-2,6-difluoro-phenyl)-(5-methoxy-1H-pyrrolo[2,3-b]pyridin-3-yl)-methanone]
